Data: patent publication US7700602B2, “Amino-5,5-diphenylimidazolone derivatives for the inhibition of β-secretase” (Wyeth LLC, priority 2004, dated 2010)
Where two headings read alike, the source gives them in different places.

Assays:
[1] = molecular target: T1, human BACE2 (Homo sapiens, UniProt Q9Y5Z0); assay: Fluorescent Kinetic Assay for Human Recombinant BACE 2 (selectivity BACE1/BACE2); assay type: biochemical; details: selectivity BACE1 over BACE2; 1.5 nM human BACE2, 25 μM substrate, pH 4.5;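 note: cleavage rate from the linear slope of fluorescence (excitation 320 nm, emission 420 nm) recorded every 40 s over 30 min at room temperature, sodium acetate buffer with 0.05% CHAPS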
T1 sequence (Q9Y5Z0 63-518): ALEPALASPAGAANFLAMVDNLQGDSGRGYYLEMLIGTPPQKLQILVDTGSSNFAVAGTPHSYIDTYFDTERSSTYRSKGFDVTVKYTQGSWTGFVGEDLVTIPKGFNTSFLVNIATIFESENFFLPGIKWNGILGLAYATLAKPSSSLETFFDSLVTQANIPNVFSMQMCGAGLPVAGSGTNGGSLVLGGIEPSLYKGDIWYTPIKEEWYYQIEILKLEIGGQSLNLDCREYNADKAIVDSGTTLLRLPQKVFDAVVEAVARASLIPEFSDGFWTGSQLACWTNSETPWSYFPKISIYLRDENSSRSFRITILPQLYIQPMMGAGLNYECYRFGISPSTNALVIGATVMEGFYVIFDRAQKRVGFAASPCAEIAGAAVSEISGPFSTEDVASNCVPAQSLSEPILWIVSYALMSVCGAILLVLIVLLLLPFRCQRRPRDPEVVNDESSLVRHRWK

[2] = molecular target: human BACE1 (Homo sapiens, UniProt P56817); assay: Fluorescent kinetic assay, inhibition of BACE1 (WABC-6 peptide substrate); assay type: biochemical;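 note: fluorescence monitored at 320 nm excitation and 420 nm emission every 40 s over 30 min, with the substrate cleavage rate taken from the linear slope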
[3] = 10 nM enzyme, 25 μM substrate WABC-6, pH 4.5, room temperature, read-out: IC50 (μM) BACE1

human BACE1, sequence (P56817 46-501): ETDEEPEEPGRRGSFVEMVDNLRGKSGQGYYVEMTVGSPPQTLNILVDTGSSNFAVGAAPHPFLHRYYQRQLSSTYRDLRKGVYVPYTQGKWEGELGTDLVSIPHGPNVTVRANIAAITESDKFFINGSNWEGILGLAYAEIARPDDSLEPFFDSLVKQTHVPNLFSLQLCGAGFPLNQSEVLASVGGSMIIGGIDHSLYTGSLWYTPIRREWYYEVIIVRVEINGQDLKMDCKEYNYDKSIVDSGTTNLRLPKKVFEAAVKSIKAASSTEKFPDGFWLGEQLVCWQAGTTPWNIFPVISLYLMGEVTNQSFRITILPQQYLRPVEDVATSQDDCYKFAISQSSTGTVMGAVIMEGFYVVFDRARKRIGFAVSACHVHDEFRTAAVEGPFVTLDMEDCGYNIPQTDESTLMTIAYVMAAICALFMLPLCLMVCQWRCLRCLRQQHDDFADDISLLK

Row | BACE1/BACE2 selectivity [1] | IC50 [2, 3] [µM] | IC50 [2] [µM] | Structure (SMILES)
1 | III (III = <10-fold selectivity) | 0.11 to 1 |  | CN1C(=O)[C@](c2ccc(OC(F)F)cc2)(c2ccc(F)c(-c3cccnc3F)c2)N=C1N [Example 133A, (5S)-2-Amino-5-[4-(difluoromethoxy)phenyl]-5-[4-fluoro-3-(2-fluoropyridin-3-yl)phenyl]-3-methyl-3,5-dihydro-4H-imidazol-4-one]
2 | II (II = 10-100-fold selectivity) | 0.01 to 0.1 |  | CN1C(=O)[C@@](c2ccc(OC(F)F)cc2)(c2cccc(-c3ccc(F)nc3)c2)N=C1N [Example 135B, (5R)-2-Amino-5-[4-(difluoromethoxy)phenyl]-5-[3-(6-fluoropyridin-3-yl)phenyl]-3-methyl-3,5-dihydro-4H-imidazol-4-one]
3 | II (II = 10-100-fold selectivity) | 0.01 to 0.1 |  | COc1ccc([C@]2(c3ccc(F)c(-c4cncc(F)c4)c3)N=C(N)N(C)C2=O)cc1 [Example 142B, (5R)-2-Amino-5-[4-fluoro-3-(5-fluoropyridin-3-yl)phenyl]-5-(4-methoxyphenyl)-3-methyl-3,5-dihydro-4H-imidazol-4-one]
4 | III (III = <10-fold selectivity) | > 1 |  | COc1ccc([C@@]2(c3ccc(F)c(-c4cncnc4)c3)N=C(N)N(C)C2=O)cc1C(F)(F)F [Example 107B, (5R)-2-Amino-5-(4-fluoro-3-pyrimidin-5-ylphenyl)-5-[4-methoxy-3-(trifluoromethyl)phenyl]-3-methyl-3,5-dihydro-4H-imidazol-4-one]
5 | III (III = <10-fold selectivity) | > 1 |  | CCOc1ccc([C@@]2(c3cccc(-c4cccnc4F)c3)N=C(N)N(C)C2=O)cc1OCC [Example 103A, (5R)-2-Amino-5-(3,4-diethoxyphenyl)-5-[3-(2-fluoropyridin-3-yl)phenyl]-3-methyl-3,5-dihydro-4H-imidazol-4-one]
6 | III (III = <10-fold selectivity) | 0.11 to 1 |  | CN1C(=O)[C@@](c2ccc(OCCF)cc2)(c2ccc(F)c(-c3cncnc3)c2)N=C1N [Example 139B, (5R)-2-Amino-5-[4-(2-fluoroethoxy)phenyl]-5-(4-fluoro-3-pyrimidin-5-ylphenyl)-3-methyl-3,5-dihydro-4H-imidazol-4-one]
7 | III (III = <10-fold selectivity) | > 1 |  | CN1C(=O)[C@](c2ccc(OC(F)F)cc2)(c2cccc(-c3ccc(F)nc3)c2)N=C1N [Example 135A, (5S)-2-Amino-5-[4-(difluoromethoxy)phenyl]-5-[3-(6-fluoropyridin-3-yl)phenyl]-3-methyl-3,5-dihydro-4H-imidazol-4-one]
8 | I (I = >100-fold selectivity) | 0.01 to 0.1 |  | COc1ccc([C@]2(c3ccc(F)c(-c4cncnc4)c3)N=C(N)N(C)C2=O)cc1C(F)(F)F [Example 107A, (5S)-2-Amino-5-(4-fluoro-3-pyrimidin-5-ylphenyl)-5-[4-methoxy-3-(trifluoromethyl)phenyl]-3-methyl-3,5-dihydro-4H-imidazol-4-one]
9 | I (I = >100-fold selectivity) | 0.01 to 0.1 |  | CN1C(=O)[C@](c2ccc(OCCF)cc2)(c2ccc(F)c(-c3cncnc3)c2)N=C1N [Example 139A, (5S)-2-Amino-5-[4-(2-fluoroethoxy)phenyl]-5-(4-fluoro-3-pyrimidin-5-ylphenyl)-3-methyl-3,5-dihydro-4H-imidazol-4-one]
10 | III (III = <10-fold selectivity) | > 1 |  | CN1C(=O)[C@](c2ccc(OC(F)F)cc2)(c2cccc(-c3cc(F)cnc3F)c2)N=C1N [Example 137A, (5S)-2-Amino-5-[4-(difluoromethoxy)phenyl]-5-[3-(2,5-difluoropyridin-3-yl)phenyl]-3-methyl-3,5-dihydro-4H-imidazol-4-one]

Continued, molecule first:

Row | Structure (SMILES) | BACE1/BACE2 selectivity [1] | IC50 [2, 3] [µM] | IC50 [2] [µM]
11 | COc1ncccc1-c1cc(C2(c3ccc(OC(F)(F)F)cc3)N=C(N)N(C)C2=O)ccc1F (stereo not drawn) [Example 72] | II (II = 10-100-fold selectivity) | 0.11 to 1 | 
12 | CN1C(=O)C(c2ccc(OC(F)(F)F)cc2)(c2cccc(-c3cnccc3F)c2)N=C1N (stereo not drawn) [Example 82] | II (II = 10-100-fold selectivity) | 0.01 to 0.1 | 
13 | CCCCOc1cc(C2(c3cccc(-c4cccnc4)c3)N=C(N)N(C)C2=O)ccc1OC (stereo not drawn) [Example 17] | III (III = <10-fold selectivity) | 0.01 to 0.1 | 
14 | COc1ccc(C2(c3cccc(-c4cccnc4)c3)N=C(N)N(C)C2=O)cc1F (stereo not drawn) [Example 21] |  |  | 0.01 to 0.1
15 | COc1ccc(C2(c3ccc(F)c(-c4cccnc4F)c3)N=C(N)N(C)C2=O)cc1C(F)(F)F (stereo not drawn) [Example 58] | II (II = 10-100-fold selectivity) | 0.01 to 0.1 | 
16 | COc1ccc(C2(c3ccc(F)c(-c4cncc(F)c4)c3)N=C(N)N(C)C2=O)cc1 (stereo not drawn) [Example 60] | II (II = 10-100-fold selectivity) | 0.01 to 0.1 | 
17 | Cc1cc(C2(c3cccc(-c4cncnc4)c3)N=C(N)N(C)C2=O)ccc1OCCC1CCCCC1 (stereo not drawn) [Example 123] | II (II = 10-100-fold selectivity) | 0.11 to 1 | 
18 | CCOc1ccc(C2(c3cccc(-c4cccnc4F)c3)N=C(N)N(C)C2=O)cc1OCC (stereo not drawn) [Example 70] | II (II = 10-100-fold selectivity) | 0.01 to 0.1 | 
19 | COc1ccc(C2(c3ccc(C#N)c(-c4cccnc4)c3)N=C(N)N(C)C2=O)cc1C (stereo not drawn) [Example 5, 4-[2-amino-4-(4-methoxy-3-methylphenyl)-1-methyl-5-oxo-4,5-dihydro-1H-imidazol-4-yl]-2-pyridin-3-ylbenzonitrile] |  |  | 0.11 to 1
20 | CN1C(=O)C(c2ccc(OC(F)(F)F)cc2)(c2cccc(-c3ncccn3)c2)N=C1N (stereo not drawn) [Example 37, 2-Amino-3-methyl-5-(3-pyrimidin-2-ylphenyl)-5-[4-(trifluoromethoxy)phenyl]-3,5-dihydro-4H-imidazol-4-one] | III (III = <10-fold selectivity) | 0.01 to 0.1 | 
21 | CCOc1ccc(C2(c3cccc(-c4cncc(OC)c4)c3)N=C(N)N(C)C2=O)cc1OCC (stereo not drawn) [Example 67] | III (III = <10-fold selectivity) | 0.01 to 0.1 | 
22 | COc1ccc(C2(c3cccc(-c4cccnc4F)c3)N=C(N)N(C)C2=O)cc1C (stereo not drawn) [Example 59] | II (II = 10-100-fold selectivity) | 0.01 to 0.1 | 
23 | CN1C(=O)C(c2ccc(OCCF)cc2)(c2cccc(-c3cncc(F)c3)c2)N=C1N (stereo not drawn) [Example 110] | II (II = 10-100-fold selectivity) | 0.01 to 0.1 | 
24 | CN1CC(c2ccc(OC(F)(F)F)cc2)(c2ccc(F)c(-c3cccnc3F)c2)N=C1N (stereo not drawn) [Example 144, 4-[4-Fluoro-3-(2-fluoropyridin-3-yl)phenyl]-1-methyl-4-(4-trifluoromethoxyphenyl)-4,5-dihydro-1H-imidazol-2-ylamine] | I (I = >100-fold selectivity) | 0.11 to 1 | 
25 | CCOc1ccc(C2(c3cccc(-c4cnccc4F)c3)N=C(N)N(C)C2=O)cc1OCC (stereo not drawn) [Example 81] | II (II = 10-100-fold selectivity) | 0.01 to 0.1 | 
26 | CN1C(=O)C(c2ccc(OC(F)F)cc2)(c2cccc(-c3cc(F)cnc3F)c2)N=C1N (stereo not drawn) [Example 91] | II (II = 10-100-fold selectivity) | 0.01 to 0.1 | 
27 | COc1cncc(-c2cc(C3(c4ccc(OC(F)(F)F)cc4)N=C(N)N(C)C3=O)ccc2F)c1 (stereo not drawn) [Example 71] | III (III = <10-fold selectivity) | 0.01 to 0.1 | 
28 | COc1ccc(C2(c3cccc(-c4cccnc4)c3)N=C(N)N(C)C2=O)cc1C#N (stereo not drawn) [Example 20] | III (III = <10-fold selectivity) |  | 0.11 to 1
29 | CN1C(=O)C(c2ccc(OC(F)(F)F)cc2)(c2cccc(-c3cncnc3)c2F)N=C1N (stereo not drawn) [Example 48] | II (II = 10-100-fold selectivity) | > 1 | 
30 | COc1ccc(C2(c3cccc(-c4cccnc4)c3)N=C(N)N(C)C2=O)cc1OC(C)C (stereo not drawn) [Example 18] | II (II = 10-100-fold selectivity) |  | 0.01 to 0.1
31 | COc1ccc(C2(c3ccc(F)c(-c4cnccc4F)c3)N=C(N)N(C)C2=O)cc1 (stereo not drawn) [Example 83] | II (II = 10-100-fold selectivity) | 0.01 to 0.1 | 
32 | Cc1cc(C2(c3cccc(-c4cccnc4)c3)N=C(N)N(C)C2=O)ccc1O (stereo not drawn) [Example 10] | II (II = 10-100-fold selectivity) | 0.01 to 0.1 | 
33 | COc1ccc(C2(c3ccc(F)c(-c4cncc(F)c4)c3)N=C(N)N(C)C2=O)cc1C (stereo not drawn) [Example 61] | II (II = 10-100-fold selectivity) | 0.01 to 0.1 | 
34 | COc1ccc([C@]2(c3cccc(-c4cccnc4F)c3)N=C(N)N(C)C2=O)cc1C [Example 102B, (5S)-2-Amino-5-[3-(2-fluoropyridin-3-yl)phenyl]-5-(4-methoxy-3-methylphenyl]-3-methyl-3,5-dihydro-4H-imidazol-4-one] |  |  | 0.01 to 0.1
35 | COc1ccc([C@@]2(c3cccc(-c4cccnc4F)c3)N=C(N)N(C)C2=O)cc1C [Example 102A, (5R)-2-Amino-5-[3-(2-fluoropyridin-3-yl)phenyl]-5-(4-methoxy-3-methylphenyl]-3-methyl-3,5-dihydro-4H-imidazol-4-one] |  |  | 0.11 to 1
